# Source: US7408065B2, “P2X7 receptor antagonists and their use” (AstraZeneca AB, priority 2003, dated 2008)
# Structures can show the parent of a compound that is named as a salt.
# Target: T1, P2X7 receptor (Homo sapiens, UniProt Q99572)
# T1 construct: 200 μl of a suspension of THP-1 cells; endogenous in cells; host or cells: THP-1 cells
# T1 sequence (Q99572 1-595): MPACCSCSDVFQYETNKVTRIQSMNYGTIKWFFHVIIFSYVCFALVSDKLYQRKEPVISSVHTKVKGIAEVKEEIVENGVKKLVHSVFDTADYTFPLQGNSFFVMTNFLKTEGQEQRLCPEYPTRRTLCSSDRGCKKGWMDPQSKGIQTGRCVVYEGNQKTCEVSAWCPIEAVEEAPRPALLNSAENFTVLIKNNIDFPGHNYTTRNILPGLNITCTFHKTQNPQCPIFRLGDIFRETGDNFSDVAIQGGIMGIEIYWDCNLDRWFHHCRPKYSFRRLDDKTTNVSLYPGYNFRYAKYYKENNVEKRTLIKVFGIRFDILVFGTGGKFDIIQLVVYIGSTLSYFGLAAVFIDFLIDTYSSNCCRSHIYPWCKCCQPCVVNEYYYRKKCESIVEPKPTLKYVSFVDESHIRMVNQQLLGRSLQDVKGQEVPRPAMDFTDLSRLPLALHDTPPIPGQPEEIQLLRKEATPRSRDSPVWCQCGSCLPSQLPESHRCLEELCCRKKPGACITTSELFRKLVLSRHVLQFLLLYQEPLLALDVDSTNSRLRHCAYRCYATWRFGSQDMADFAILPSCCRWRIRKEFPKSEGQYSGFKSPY
# Assay: P2X7 receptor antagonist activity: bbATP-induced ethidium bromide fluorescence in THP-1 cells
# Type: cell-based
# Settings: not given
# Experimental: Consequently, when the receptor is activated using bbATP in the presence of ethidium bromide (a fluorescent DNA probe), an increase in the fluorescence of intracellular DNA-bound ethidium bromide is observed. The increase in fluorescence can be used as a measure of P2X7 receptor activation and therefore to quantify the effect of a compound on the P2X7 receptor.
# In this manner, each of the title compounds of the Examples was tested for antagonist activity at the P2X7 receptor. Thus, the test was performed in 96-well flat bottomed microtitre plates, the wells being filled with 250 μl of test solution comprising 200 μl of a suspension of THP-1 cells (2.5×10^6 cells/ml) containing 10^−4M ethidium bromide, 25 μl of a high potassium buffer solution containing 10^−5M bbATP, and 25 μl of the high potassium buffer solution containing 3×10^−5M test compound. The plate was covered with a plastics sheet and incubated at 37° C. for one hour. […] For the purposes of comparison, bbATP (a P2X7 receptor agonist) and pyridoxal 5-phosphate (a P2X7 receptor antagonist) were used separately in the test as controls.
row,IC50 [nM],SMILES
1,501,"CS(=O)(=O)NC(=O)NCCCc1ccc2c(NC(=O)CC3CCCCC3)c(Cl)ccc2n1 [Example 24, N-[6-Chloro-2-[3-[[[(methylsulfonyl)amino]carbonyl]amino]propyl]-5-quinolinyl]-cyclohexaneacetamide]"

# Same assay, conditions: THP-1 cells; negative logarithm of concentration reducing bbATP agonist activity by 50%; ethidium bromide fluorescence; 37° C., one hour; read-out: pIC50 (converted)
row,IC50 [nM],SMILES
1,126,"O=C(CC1CCCCC1)Nc1c(Cl)ccc2nc(NCCCO)ccc12 [Example 5, N-[6-Chloro-2-[(3-hydroxypropyl)amino]-5-quinolinyl]-cyclohexaneacetamide, Hydrochloride]"
2,25.1,"O=C(CC1CCCCC1)Nc1c(Cl)ccc2nc(NCCNCCO)ccc12 [Example 17, N-[6-Chloro-2-[[2-[(2-hydroxyethyl)amino]ethyl]amino]-5-quinolinyl]-cyclohexaneacetamide, Dihydrochloride]"
3,126,"CC1CCC(CC(=O)Nc2cccc3ncccc23)CC1 (stereo not shown) [Example 20, 4-Methyl-N-5-quinolinyl-cyclohexaneacetamide]"
4,39.8,"O=C(CC1CCCCC1)Nc1c(Cl)ccc2nc(N3CC[C@@H](O)C3)ccc12 [Example 28, N-[6-Chloro-2-[(3R)-3-hydroxy-1-pyrrolidinyl]-5-quinolinyl]-cyclohexaneacetamide]"
5,25.1,"CN[C@@H]1CCN(c2ccc3c(NC(=O)CC4CCCCC4)c(Cl)ccc3n2)C1 [Example 33, N-[6-Chloro-2-[(3R)-3-(methylamino)-1-pyrrolidinyl]-5-quinolinyl]-cyclohexaneacetamide]"
6,50.1,"O=C(CC1CCCCC1)Nc1c(Cl)ccc2nc(N3CCC[C@@H](O)C3)ccc12 [Example 37, N-[6-Chloro-2-[(3R)-3-hydroxy-1-piperidinyl]-5-quinolinyl]-cyclohexaneacetamide]"
7,316,"O=C(NCC1CCCCC1)c1c(Cl)ccc2ncccc12 [Example 42, 6-Chloro-N-(cyclohexylmethyl)quinoline-5-carboxamide]"
8,398,"O=C(O)CN1CCN(c2ccc3c(C(=O)NCC4CCCCC4)c(Cl)ccc3n2)CC1 [Example 73, 4-[6-Chloro-5-[[(cyclohexylmethyl)amino]carbonyl]-2-quinolinyl]-1-piperazineacetic acid, Acetate]"
9,316,"O=C1CN([C@H]2CCN(c3ccc4c(C(=O)NCC5CCCCC5)c(Cl)ccc4n3)C2)S(=O)(=O)N1 [Example 112, 6-Chloro-N-(cyclohexylmethyl)-2-[(3S)-3-(1,1-dioxido-4-oxo-1,2,5-thiadiazolidin-2-yl)-1-pyrrolidinyl]-5-quinolinecarboxamide]"

# System: not given
# Assay: not given
# Settings: not given
row,melting point [°C],SMILES
1,151 to 152,"CS(=O)(=O)NC(=O)NCCCc1ccc2c(NC(=O)CC3CCCCC3)c(Cl)ccc2n1 [Example 24, N-[6-Chloro-2-[3-[[[(methylsulfonyl)amino]carbonyl]amino]propyl]-5-quinolinyl]-cyclohexaneacetamide]"
2,226 to 227,"O=C(CC1CCCCC1)Nc1c(Cl)ccc2nc(N3CC[C@@H](O)C3)ccc12 [Example 28, N-[6-Chloro-2-[(3R)-3-hydroxy-1-pyrrolidinyl]-5-quinolinyl]-cyclohexaneacetamide]"
3,169,"CN[C@@H]1CCN(c2ccc3c(NC(=O)CC4CCCCC4)c(Cl)ccc3n2)C1 [Example 33, N-[6-Chloro-2-[(3R)-3-(methylamino)-1-pyrrolidinyl]-5-quinolinyl]-cyclohexaneacetamide]"
4,209 to 214,"O=C(CC1CCCCC1)Nc1c(Cl)ccc2nc(N3CCC[C@@H](O)C3)ccc12 [Example 37, N-[6-Chloro-2-[(3R)-3-hydroxy-1-piperidinyl]-5-quinolinyl]-cyclohexaneacetamide]"
5,210 to 212,"CC1(CC(=O)Nc2c(Cl)ccc3nc(N4CCC(C(=O)O)CC4)ccc23)CCCCC1 [Example 79, 1-[6-Chloro-5-[[(1-methylcyclohexyl)acetyl]amino]-2-quinolinyl]-4-piperidinecarboxylic Acid]"
6,185 to 186,"O=C(CC1CCCCC1)Nc1c(Cl)ccc2nc(N3CCCC(NCCO)C3)ccc12 (stereo not shown) [Example 80, N-[6-Chloro-2-[3-[(2-hydroxyethyl)amino]-1-piperidinyl]-5-quinolinyl]-cyclohexaneacetamide]"
7,157 to 158,"O=C(CC1CCCCC1)Nc1c(Cl)ccc2nc(N3CCCC3CNCCO)ccc12 (stereo not shown) [Example 81, N-[6-Chloro-2-[2-[[(2-hydroxyethyl)amino]methyl]-1-pyrrolidinyl]-5-quinolinyl]-cyclohexaneacetamide]"
8,158 to 159,"CNC1CCCN(c2ccc3c(NC(=O)CC4CCCCC4)c(Cl)ccc3n2)C1 (stereo not shown) [Example 82, N-[6-Chloro-2-[3-(methylamino)-1-piperidinyl]-5-quinolinyl]-cyclohexaneacetamide]"
9,138 to 145,"CNCC1CCCN1c1ccc2c(NC(=O)CC3CCCCC3)c(Cl)ccc2n1 (stereo not shown) [Example 83, N-[6-Chloro-2-[2-[(methylamino)methyl]-1-pyrrolidinyl]-5-quinolinyl]-cyclohexaneacetamide]"
10,257 to 259,"O=C(O)CN[C@H]1CCN(c2ccc3c(NC(=O)CC4CCCCC4)c(Cl)ccc3n2)C1 [Example 85, N-[(3S)-1-[6-Chloro-5-[(cyclohexylacetyl)amino]-2-quinolinyl]-3-pyrrolidinyl]-glycine]"
11,204 to 207,"Cc1ccc2nc(N3CC[C@H](NCCO)C3)ccc2c1NC(=O)CC1CCCCC1 [Example 86, N-[2-[(3S)-3-[(2-Hydroxyethyl)amino]-1-pyrrolidinyl]-6-methyl-5-quinolinyl]-cyclohexaneacetamide]"
12,178 to 200,"O=C(CC1CCCCC1)Nc1c(Cl)ccc2nc(N3CC[C@H](NS(=O)(=O)C(F)(F)F)C3)ccc12 [Example 88, N-[6-Chloro-2-[(3S)-3-[[(trifluoromethyl)sulfonyl]amino]-1-pyrrolidinyl]-5-quinolinyl]-cyclohexaneacetamide]"
13,303 to 307,"CS(=O)(=O)NC(=O)N[C@H]1CCN(c2ccc3c(NC(=O)CC4CCCCC4)c(Cl)ccc3n2)C1 [Example 89, N-[6-Chloro-2-[(3S)-3-[[[(methylsulfonyl)amino]carbonyl]amino]-1-pyrrolidinyl]-5-quinolinyl]-cyclohexaneacetamide]"
14,220 to 221,"O=C(CC1CCCCC1)Nc1c(Cl)ccc2nc(N3CC[C@H](NCCc4nnn[nH]4)C3)ccc12 [Example 101, N-[6-Chloro-2-[(3S)-3-[[2-(2H-tetrazol-5-yl)ethyl]amino]-1-pyrrolidinyl]-5-quinolinyl]-cyclohexaneacetamide]"
15,275,"O=C(CC1CCCCC1)Nc1c(Cl)ccc2nc(N3CCC(c4nsc(=O)[nH]4)CC3)ccc12 [Example 103, N-[6-Chloro-2-[4-(4,5-dihydro-5-oxo-1,2,4-thiadiazol-3-yl)-1-piperidinyl]-5-quinolinyl]-cyclohexaneacetamide]"
16,192 to 195,"O=C(CC1CCCCC1)Nc1c(Cl)ccc2nc(CCCCc3nnn[nH]3)ccc12 [Example 105, N-[6-Chloro-2-[4-(1H-tetrazol-5-yl)butyl]-5-quinolinyl]-cyclohexaneacetamide]"
17,90 to 93,"O=C(NCC1CCCCC1)c1c(Cl)ccc2nc(CCCCc3nnn[nH]3)ccc12 [Example 106, 6-Chloro-N-(cyclohexylmethyl)-2-[4-(1H-tetrazol-5-yl)butyl]-5-quinolinecarboxamide]"
18,177 to 181,"O=C(CC1CCCCC1)Nc1c(Cl)ccc2nc(N3CC[C@H](OCCc4nnn[nH]4)C3)ccc12 [Example 107, N-[6-Chloro-2-[(3S)-3-[2-(1H-tetrazol-5-yl)ethoxy]-1-pyrrolidinyl]-5-quinolinyl]-cyclohexaneacetamide]"
19,185 to 190,"O=C(CC1CCCCC1)Nc1c(Cl)ccc2nc(N3CC[C@H](OCCc4noc(=O)[nH]4)C3)ccc12 [Example 108, N-[6-Chloro-2-[(3S)-3-[2-(4,5-dihydro-5-oxo-1,2,4-oxadiazol-3-yl)ethoxy]-1-pyrrolidinyl]-5-quinolinyl]-cyclohexaneacetamide]"
20,295 to 300,"O=C(CC1CCCCC1)Nc1c(Cl)ccc2nc(N3CCC(c4nnn[nH]4)CC3)ccc12 [Example 109, N-[6-Chloro-2-[4-(1H-tetrazol-5-yl)-1-piperidinyl]-5-quinolinyl]cyclohexane-acetamide]"
21,255 to 257,"O=C(NCC1CCCCC1)c1c(Cl)ccc2nc(N3CCC(c4nnn[nH]4)CC3)ccc12 [Example 110, 6-Chloro-N-(cyclohexylmethyl)-2-[4-(1H-tetrazol-5-yl)-1-piperidinyl]-5-quinolinecarboxamide]"
22,252 to 255,"O=C(NCCC1CCCCC1)c1c(Cl)ccc2nc(N3CCC(c4nnn[nH]4)CC3)ccc12 [Example 111, 6-Chloro-N-(2-cyclohexylethyl)-2-[4-(1H-tetrazol-5-yl)-1-piperidinyl]-5-quinolinecarboxamide]"
23,235 to 237,"N#CC1CCN(c2ccc3c(NC(=O)CC4CCCCC4)c(Cl)ccc3n2)CC1 [Example 113, N-[6-Chloro-2-(4-cyan-1-piperidinyl)-5-quinolinyl]-cyclhexaneacetamide]"
24,187 to 189,"O=C(CC1CCCCC1)Nc1c(Cl)ccc2nc(N3CCC(NS(=O)(=O)C(F)(F)F)CC3)ccc12 [Example 114, N-[6-Chloro-2-[4-[[(trifluoromethyl)sulfonyl]amino]-1-piperidinyl]-5-quinolinyl]-cyclohexaneacetamide]"
